Test results reported in patent publication US10913983B2, “Sensitivity markers and uses for CDK7 inhibitors in breast cancers” (UNIVERSITY OF SOUTH CAROLINA, priority 2017, dated 2021).
Read-outs that look alike come from different tables or passages of the source.

Assays:
T47D cells = assay: Cell cycle analysis; type: cell-based; conditions: 100 and 250 nM, 24 or 48 hours
Description: MDA-MB-231 and T47D cells were seeded into 6-well plates and allow to grow until 60% confluent. The cells were then washed with PBS and the media was replaced with serum-free media overnight. After serum starvation the cells were treated with serum containing media in the presence or absence of 100 and 250 nM THZ1 for 24 and 48 hours. The cells were collected, fixed in ethanol overnight and cell cycle distribution was measured using DAPI on the LSR2 (Beckman-Dickinson).

BT549 = assay: Cell proliferation MTT assay; type: cell-based
Description: (§1) Cells were seeded in 12-well plates at densities ranging from 10000-30000 cells/well and after 24 hours cells were treated with 10, 40 and 100 nM THZ1 in triplicate. After 7 days the cells were imaged using Zeiss Axiovert 200 microscope using a 20× objective lens. Additionally, cells were plated in 96-well plates at a density of 2000 cells/well and after 24 hours treated with 0-10 μM THZ1. After 2 and 7 days the growth of the cells was measured by MTT assay.
(§2) All results were presented as mean±standard deviation of 4-8 parallel assessments. Similar results were obtained from a minimum of two independent experiments. […] Densitometry was performed on duplicate immunoblots using ImageLab software (Biorad) and normalized to tubulin loading controls and then correlated with the THZ1 IC50 values of each cell line. Statistical analyses were performed using SPSS 18.0 (SPSS Inc). Bi-variant scatter graphs and Spearman rank analyses were performed to evaluate associations between protein levels, mRNA and response to inhibition. IC50 values were calculated for MTT assays using CompuSyn software.

HCC1954 = assay: Cell proliferation MTT assay; type: cell-based
Description: as §1, §2

SKBR3 = assay: Cell proliferation MTT assay; type: cell-based
Description: as §1, §2

MDA-MB-453 = assay: Cell proliferation MTT assay; type: cell-based
Description: as §1, §2

BT474 = assay: Cell proliferation MTT assay; type: cell-based
Description: as §1, §2

MCF7 = assay: Cell proliferation MTT assay; type: cell-based
Description: as §1, §2

T47D [1] = assay: Cell proliferation MTT assay; type: cell-based
Description: as §1, §2

JIMT-1 = assay: Cell proliferation MTT assay; type: cell-based; conditions: for IC50: MTT
Description: as §1, §2

HCC1937 = assay: Cell proliferation MTT assay; type: cell-based
Description: as §1, §2

MDA-MB-361 = assay: Cell proliferation MTT assay; type: cell-based
Description: as §1, §2

MDA-MB-231 = assay: Cell proliferation MTT assay; type: cell-based
Description: as §1, §2

ZR-75-1 = assay: Cell proliferation MTT assay; type: cell-based
Description: as §1, §2

[2] = system: PARP cleavage in MDA-MB-231, SKBR3 and JIMT-1 cells; assay: Immunoblotting for PARP cleavage; type: cell-based; conditions: 250 nM, 24 and 48 hours
Description: Cells were plated in 100 mm^2 petri dishes at a density of 1×10^6 cells/plate and allowed to grow for 3-4 days until the cells reached 80% confluency. Cells were treated with THZ1 or with vehicle control (DMSO) prior to lysing cells in RIPA buffer containing protease inhibitor cocktail and PMSF. Protein concentration was determined using BCA assay (Pierce). All lysates were prepared in biological duplicates. Protein (50 μg) was resolved on 4-20% Express-Plus PAGE gels in Tris-MOPS (SDS) running buffer (GenScript), transferred to PVDF membranes and incubated at 4° C. overnight with primary antibodies: CDK7 (sc-529, SantaCruz), ER (sc-543, SantaCruz), HER2 (#4290, Cell Signaling Technology), RNA-Pol II-S2P (C152000005, Diagenode), RNA-Pol II-S5P C152000007, RNA-Pol II-S7P (04-1570, Millipore) and RNA-Pol II (sc-900X, SantaCruz), CITED2 (MAB5005, R+D Systems), Tubulin (T-9026, Sigma), followed by anti-rabbit (#31460, ThermoFisher Scientific), anti-mouse (31430, ThermoFisher Scientific) or anti-rat (AP136P, Millipore) secondary antibodies. Bands were visualized with Western Lighting Plus ECL detection reagent (Perkin Elmer) using ChemiDoc Touch™ (BioRad). Images were analyzed and densitometry performed using ImageLab software (Biorad).

[3] = system: panel of breast cancer cell lines; assay: Cell proliferation MTT assay, cell line panel; type: cell-based
Description: as §1, §2
To investigate the effect of CDK7 inhibition in a time and dose dependent manner, an extended panel of 11 breast cancer cell lines were screened for response to THZ1 after 2 and 7 days of treatment.

T47D [4] = conditions: fold change in gene expression, THZ1; cited from earlier work

For `CN(C)C/C=C/C(=O)Nc1ccc(C(=O)Nc2cccc(Nc3ncc(Cl)c(-c4c[nH]c5ccccc45)n3)c2)cc1` [THZ1], the cell cycle distribution (T47D cells) was “G1 arrest”, the IC50 (BT549; BT549, 2 days, read-out: 2 day IC50) was 17 nM and the IC50 (BT549; BT549, 7 days, read-out: 7 day IC50) was 8 nM. For the same compound, the IC50 (HCC1954; HCC1954, 2 days, read-out: 2 day IC50) was 158 nM, the IC50 (HCC1954; HCC1954, 7 days, read-out: 7 day IC50) was 36 nM and the IC50 (SKBR3; SKBR3, 2 days, read-out: 2 day IC50) was 23 nM. For the same compound, the IC50 (SKBR3; SKBR3, 7 days, read-out: 7 day IC50) was 9 nM, the IC50 (MDA-MB-453; MDA-MB-453, 2 days, read-out: 2 day IC50) was 133 nM and the IC50 (MDA-MB-453; MDA-MB-453, 7 days, read-out: 7 day IC50) was 12 nM. The IC50 (BT474; BT474, 2 days, read-out: 2 day IC50) was 490 nM, the IC50 (BT474; BT474, 7 days, read-out: 7 day IC50) was 27 nM and the IC50 (MCF7; MCF7, 2 days, read-out: 2 day IC50) was 32 nM. For the same compound, the IC50 (MCF7; MCF7, 7 days, read-out: 7 day IC50) was 59 nM, the IC50 (T47D [1]; 2 days, read-out: 2 day IC50) was 89 nM and the IC50 (T47D [1]; 7 days, read-out: 7 day IC50) was 14 nM. For the same compound, the IC50 (JIMT-1; JIMT-1, 2 days, read-out: 2 day IC50) was 289 nM, the IC50 (JIMT-1; JIMT-1, 7 days, read-out: 7 day IC50) was 87 nM and the “response to low nanomolar concentrations” value (JIMT-1; JIMT-1, <100 nM, 7 days of treatment) was “lack of significant response”. The IC50 (HCC1937; HCC1937, 2 days, read-out: 2 day IC50) was 94 nM, the IC50 (HCC1937; HCC1937, 7 days, read-out: 7 day IC50) was 24 nM and the IC50 (MDA-MB-361; MDA-MB-361, 2 days, read-out: 2 day IC50) was 133 nM. The IC50 (MDA-MB-361; MDA-MB-361, 7 days, read-out: 7 day IC50) was 27 nM, the IC50 (MDA-MB-231; MDA-MB-231, 2 days, read-out: 2 day IC50) was 159 nM and the IC50 (MDA-MB-231; MDA-MB-231, 7 days, read-out: 7 day IC50) was 36 nM. The IC50 (ZR-75-1; ZR-75-1, 2 days, read-out: 2 day IC50) was 286 nM, the IC50 (ZR-75-1; ZR-75-1, 7 days, read-out: 7 day IC50) was 50 nM and the PARP cleavage [2] was “induced PARP cleavage only in the SKBR3 cells”. The “difference in sensitivity determined by IC50” value ([3]; most sensitive cell line SKBR3 vs least sensitive cell line JIMT-1) was 25 fold, the IC50 ([3]; two-day treatment, read-out: IC50 values of most cell lines) was 100 to 300 nM and the “BAMBI T47D FC” value (T47D [4]) was −1.74. For the same compound, the “CDKN1B T47D FC” value (T47D [4]) was −2.3, the “CITED2 T47D FC” value (T47D [4]) was −2.71 and the “CYR61 T47D FC” value (T47D [4]) was −1.96. For the same compound, the “DKK1 T47D FC” value (T47D [4]) was −1.09, the “E2F8 T47D FC” value (T47D [4]) was −4.01 and the “ELF3 T47D FC” value (T47D [4]) was −1.22. The “FADD T47D FC” value (T47D [4]) was −3.29, the “FBXO5 T47D FC” value (T47D [4]) was −2.65 and the “MARS2 T47D FC” value (T47D [4]) was −2.3. For the same compound, the “MOCS3 T47D FC” value (T47D [4]) was −3.86, the “MYC T47D FC” value (T47D [4]) was −2.68 and the “NEDD9 T47D FC” value (T47D [4]) was −3.32. The “PHLDA1 T47D FC” value (T47D [4]) was −3.81, the “PIM3 T47D FC” value (T47D [4]) was −2.54 and the “PLK2 T47D FC” value (T47D [4]) was −2.48. The “TRIB1 T47D FC” value (T47D [4]) was −2.31, the “WEE1 T47D FC” value (T47D [4]) was −1.96 and the “ZNF217 T47D FC” value (T47D [4]) was −2.77. For the same compound, the “ZNF627 T47D FC” value (T47D [4]) was −2.75.
